Response amplitude data for 1 compound are collected here from publication PMC7324608 (Scientific Reports, 2020).

Positions count from the first letter of the chain named.

Holding throughout (details): MST
For experiment [1], the target named is T1, HpHtrA S166A (Helicobacter pylori, UniProt G2J5T2, S166A).
T1 sequence (G2J5T2 18-475 S166A): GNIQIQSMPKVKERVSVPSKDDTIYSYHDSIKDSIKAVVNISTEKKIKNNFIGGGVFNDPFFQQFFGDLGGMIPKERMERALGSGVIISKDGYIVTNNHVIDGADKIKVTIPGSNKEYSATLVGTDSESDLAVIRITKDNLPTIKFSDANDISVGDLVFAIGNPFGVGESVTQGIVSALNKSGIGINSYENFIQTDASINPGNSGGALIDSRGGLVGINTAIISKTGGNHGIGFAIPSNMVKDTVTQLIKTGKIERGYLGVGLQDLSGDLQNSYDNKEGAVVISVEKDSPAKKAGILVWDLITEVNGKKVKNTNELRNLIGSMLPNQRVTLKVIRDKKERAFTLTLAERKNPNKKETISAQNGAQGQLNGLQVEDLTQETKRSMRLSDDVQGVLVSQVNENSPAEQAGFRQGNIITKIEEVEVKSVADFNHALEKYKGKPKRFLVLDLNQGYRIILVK
As for the experimental part:
(§1) Synthesis of 2-Abz-AQRVAFY(3-NO2)-NH2. The peptide was assembled manually on a 20 µmol scale.
(§2) The side-chain protecting groups were Pbf for Arg, and Trt for Gln. Fmoc deprotection was carried out with 25% piperidine in DMF/NMP (80:20, v/v) for 3 min, and 12.5% piperidine in DMF/NMP (80:20, v/v) for 12 min. The double couplings (2x45 min) were accomplished with the mixture Fmoc-AA-OH/HOBt/HBTU/DIPEA (5:5:4.8:10 equiv.). 2 -Boc-Abz-OH was coupled with the same protocol.
(§3) Afterwards, the peptidyl-resin was treated with 25% piperidine in DMF/NMP (80:20, v/v) (2x12 min) to deacylate the 3-nitro-tyrosine side chain. The peptide was simultaneously cleaved from the resin and deprotected by using the mixture TFA/H2O/TIA/EDT/TIS (90:3:1:3:3; Vtot = 1 ml) for about 3 h, precipitated from ice-cold diethyl ether, recovered by centrifugation at 4 °C for 6 min, washed four times with ice-cold diethyl ether, and dried in vacuo. The solid was dissolved in water and lyophilized.
(§4) Microscale thermophoresis .
(§5) D168A, MicroScale Thermophoresis (MST) analysis was performed using the Monolith NT.115 (NanoTemper Technologies). HpHtrA proteases were labeled with red fluorescent dye NT -650-NHS (amine reactive) according to the manufacturer’s protocol. Remaining free dye was removed by buffer exchange column chromatography and proteins were eluted in 50 mM Tris pH 7.4, 150 mM NaCl, 0.04% Tween. 5 nM of labelled HpHtrA was incubated for 15 minutes at RT with decreasing […]
(§6) Measurement was performed with premium treated capillaries (NanoTemper Technologies) and the Monolith NT.115 Microscale Thermophoresis device. Data analysis was performed with MO.Affinity Analysis v2.3 (NanoTemper Technologies) and GraphPad Prism Software (Version 8.0.2). Three independent experiments were […]

Experiment [2] deals with T2, HpHtrA D165A (Helicobacter pylori, UniProt G2J5T2, D165A).
T2 sequence (G2J5T2 18-475 D165A): T1 sequence (G2J5T2 18-475 S166A) with D148A, A149S
As for the experimental part: as §1, §2, §3, §4, §5, §6

For experiment [3], the target named is T3, HpHtrA D168A (Helicobacter pylori, UniProt G2J5T2, D168A).
T3 sequence (G2J5T2 18-475 D168A): T1 sequence (G2J5T2 18-475 S166A) with A149S, D151A
As for the experimental part: as §1, §2, §3, §4, §5, §6

In the case of `[Zn+2]` [Zn^++, ZnCl2], the figures for the Response amplitude in experiment [1], in experiment [2] and in experiment [3] were 3.9, 3.6 and 2.7, respectively.
